Data: PubChem BioAssay (NCI)
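All cell lines were grown in 96-well plates and treated with compound for 48 hours. Abbreviation: GI50, concentration required for 50% inhibition of growth. TGI denotes the concentration required for complete inhibition of growth.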

Experiments:
Test in all cases: NCI tumour cell line growth inhibition, 48 h
CCRF-CEM leukemia = tested on: CCRF-CEM leukemia
EKVX NSCLC = tested on: EKVX NSCLC
HCC-2998 colon = tested on: HCC-2998 colon
K-562 leukemia = tested on: K-562 leukemia
LOX IMVI melanoma = tested on: LOX IMVI melanoma
SK-MEL-5 melanoma = tested on: SK-MEL-5 melanoma
SNB-19 CNS = tested on: SNB-19 CNS
UO-31 renal = tested on: UO-31 renal
COLO 205 colon = tested on: COLO 205 colon
PC-3 prostate = tested on: PC-3 prostate

| SMILES | TGI (CCRF-CEM leukemia) | TGI (EKVX NSCLC) | TGI (HCC-2998 colon) | TGI (K-562 leukemia) | TGI (LOX IMVI melanoma) | TGI (SK-MEL-5 melanoma) | TGI (SNB-19 CNS) | TGI (UO-31 renal) | TGI (COLO 205 colon) | TGI (PC-3 prostate) | GI50 (SK-MEL-5 melanoma) | GI50 (CCRF-CEM leukemia) | GI50 (COLO 205 colon) | GI50 (EKVX NSCLC) | GI50 (K-562 leukemia) | GI50 (LOX IMVI melanoma) | GI50 (PC-3 prostate) | GI50 (SNB-19 CNS) | GI50 (UO-31 renal) |
| --- | --- | --- | --- | --- | --- | --- | --- | --- | --- | --- | --- | --- | --- | --- | --- | --- | --- | --- | --- |
| COc1ccc(/C(Cl)=C(\C=O)c2ccc(OC)cc2)cc1 | > 100 µM | > 100 µM | > 100 µM | > 100 µM | > 100 µM | > 100 µM | > 100 µM | > 100 µM | – | – | – | – | – | – | – | – | – | – | – |
| Cc1c2cccc-2c(OCCO)cc2c3ccccc3n(C)c12 | 7.53 µM | 8.69 µM | 14.6 µM | 21.4 µM | 8.15 µM | 5.77 µM | 18.6 µM | 10.6 µM | 3.24 µM | 11.5 µM | – | – | – | – | – | – | – | – | – |
| CC(C)C(C/C=C1\CC(CO)(COC(=O)C(C)(C)C)OC1=O)C(C)C (stereo unspecified) | 42.7 µM | 24.8 µM | 24.8 µM | 44.9 µM | 17.7 µM | 20 µM | 26 µM | 18.3 µM | 11.4 µM | 20.9 µM | – | – | – | – | – | – | – | – | – |
| COc1ccc2c(c1)CCCN2CCCCCCCCCCN(CCC(C)C)CCC(C)C | 32.9 µM | 20 µM | 19.2 µM | 40 µM | 29.1 µM | 18.9 µM | 27.7 µM | 10.2 µM | 26.6 µM | – | – | – | – | – | – | – | – | – | – |
| COc1ccc(C2=C3SC=c4ccccc4=C3ON=C2c2ccccc2)cc1 | > 100 µM | > 100 µM | > 100 µM | > 100 µM | > 100 µM | > 100 µM | > 100 µM | > 100 µM | > 100 µM | > 100 µM | – | – | – | – | – | – | – | – | – |
| N=C1C(=N)c2ccccc2-c2ccccc21.N=C1C(=N)c2ccccc2-c2ccccc21.N=C1C(=N)c2ccccc2-c2ccccc21.[Cl-].[Ru+2] | – | 3.41 µM | > 31.6 µM | 4.68 µM | 7.94 µM | 3.71 µM | 6.35 µM | 4.71 µM | 6.87 µM | – | 1.91 µM | – | – | – | – | – | – | – | – |
| NCCCn1c2c(c3ccc([N+](=O)[O-])cc3c1=O)C(=O)c1ccccc1-2 | > 50 µM | 1.69 µM | – | – | 0.225 µM | 0.479 µM | 7.05 µM | > 50 µM | 3.82 µM | 3.61 µM | 0.0956 µM | 0.135 µM | 0.33 µM | 0.317 µM | 0.0335 µM | 0.0173 µM | 0.326 µM | 0.0721 µM | 0.11 µM |
| Cc1cc(/N=C/c2ccc(F)cc2)n(-c2ccccc2)n1 | > 100 µM | > 100 µM | – | > 100 µM | > 100 µM | > 100 µM | > 100 µM | > 100 µM | > 100 µM | > 100 µM | – | – | – | – | – | – | – | – | – |
| CC(=O)NNc1nc(-c2ccc([N+](=O)[O-])cc2)c(C#N)c(=O)n1C | > 100 µM | > 100 µM | – | 89.5 µM | 41.3 µM | > 100 µM | > 100 µM | > 100 µM | > 100 µM | > 100 µM | – | – | – | – | – | – | – | – | – |
| CC(=O)O[C@H]1CC[C@@]2(C)C(=CC[C@H]3[C@@H]4C/C(=C\c5ccc(N(C)C)cc5)[C@H](OC(C)=O)[C@@]4(C)CC[C@@H]32)C1 | – | 36.7 µM | – | > 100 µM | 20.8 µM | 74.9 µM | 27.3 µM | 27.7 µM | 29.4 µM | 16.7 µM | – | – | – | – | – | – | – | – | – |
| CSc1ccsc1-c1sc(-c2cc(SC)c(-c3sc(-c4cc(SC)c(-c5sccc5SC)s4)cc3SC)s2)cc1SC | 27 µM | > 100 µM | > 100 µM | > 100 µM | > 100 µM | > 100 µM | > 100 µM | – | > 100 µM | > 100 µM | – | – | – | – | – | – | – | – | – |
| CCSC1=N/C(=C\c2ccc(N(C)C)cc2)C(Cl)=N1 | > 100 µM | > 100 µM | > 100 µM | – | – | > 100 µM | > 100 µM | > 100 µM | > 100 µM | > 100 µM | – | – | – | – | – | – | – | – | – |
| NCCc1cc(O)c(O)cc1O | 23.6 µM | 65.9 µM | > 100 µM | > 80.5 µM | 40 µM | 38.6 µM | > 100 µM | 51.2 µM | > 72.9 µM | > 100 µM | – | – | – | – | – | 19.1 µM | – | – | – |
| CN(C)CCCn1cnc2cc(Cl)c(Cl)cc21 | > 100 µM | > 100 µM | 40.6 µM | > 100 µM | > 100 µM | > 100 µM | > 100 µM | > 100 µM | > 100 µM | > 100 µM | – | – | – | – | – | – | – | – | – |
| CCc1nc(N)nc(N)c1-c1ccc([N+](C)(C)C)cc1 | > 100 µM | > 100 µM | > 100 µM | > 100 µM | > 100 µM | > 100 µM | > 100 µM | > 100 µM | > 100 µM | > 100 µM | – | – | – | – | – | – | – | – | – |
| O=P1(c2ccccc2)Nc2ccccc2SSc2ccccc2N1 | 62.8 µM | 33.4 µM | 37.6 µM | 51.4 µM | 35.1 µM | 31.6 µM | 30.3 µM | 27.2 µM | 42.4 µM | – | – | – | – | – | – | – | – | – | – |
